Structures can show the parent of a compound that is named as a salt. Where two headings read alike, the source gives them in different places.
Legend:
[1] = 12-membered ring
human Factor XIa = human Factor XIa (Homo sapiens (Human), UniProt P03951); test: Factor XIa enzyme inhibition assay (chromogenic substrate S-2366); type: biochemical; conditions: purified human Factor XIa 25-200 pM, substrate S-2366, 50 mM HEPES pH 7.4
[2] = from C=CC[C@H](NC(=O)OC(C)(C)C)c1cc(-c2ccc(NC(=O)OC)cc2NC(=O)C(C=C)CC)ccn1, rcm bond, Grubbs II, microwave, DCE, 120.0 °C, 0.42 h

Sequence of human Factor XIa (P03951 388-625): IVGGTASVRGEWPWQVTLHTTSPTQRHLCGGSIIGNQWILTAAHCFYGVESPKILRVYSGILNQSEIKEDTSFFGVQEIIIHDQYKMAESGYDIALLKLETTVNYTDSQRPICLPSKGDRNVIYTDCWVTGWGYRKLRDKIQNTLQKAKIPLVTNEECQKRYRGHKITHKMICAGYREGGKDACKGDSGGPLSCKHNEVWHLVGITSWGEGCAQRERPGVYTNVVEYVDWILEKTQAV
Sequence of human Factor XIa (P03951 19-387 partner): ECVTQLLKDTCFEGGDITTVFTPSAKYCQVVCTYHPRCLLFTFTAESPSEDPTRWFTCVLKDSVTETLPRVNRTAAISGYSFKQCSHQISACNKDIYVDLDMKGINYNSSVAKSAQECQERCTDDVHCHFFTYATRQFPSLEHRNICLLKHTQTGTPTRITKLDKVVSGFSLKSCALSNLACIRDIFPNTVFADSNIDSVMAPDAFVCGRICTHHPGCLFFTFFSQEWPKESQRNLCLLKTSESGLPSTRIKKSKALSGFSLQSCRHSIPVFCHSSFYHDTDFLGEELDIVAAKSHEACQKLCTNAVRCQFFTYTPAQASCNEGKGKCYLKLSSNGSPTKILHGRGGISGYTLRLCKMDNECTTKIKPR

SMILES	Ki (human Factor XIa) [nM]	further results
CCC1/C=C/C[C@H](NC(=O)OC(C)(C)C)c2cc(ccn2)-c2ccc(NC(=O)OC)cc2NC1=O (single isomer, unassigned; diastereomer b)		ring closure, isolated yield [1, 2]: 16%
COC(=O)Nc1ccc2c(c1)NC(=O)[C@H](C)/C=C/C[C@H](NC(=O)OC(C)(C)C)c1cc-2ccn1		ring closure, isolated yield ([1]; from C=CC[C@H](NC(=O)OC(C)(C)C)c1cc(-c2ccc(NC(=O)OC)cc2NC(=O)C(C)C=C)ccn1, rcm bond, Grubbs II (0.1 eq)/pTsOH, DCM, 4.0 mM, 40.0 °C, 6.0 h): 25%; ring closure, isolated yield ([1]; from C=CC[C@H](NC(=O)OC(C)(C)C)c1cc(-c2ccc(NC(=O)OC)cc2NC(=O)[C@H](C)C=C)ccn1, rcm bond, Grubbs II (0.2 eq)/pTsOH, DCM, 11.8 mM, 4.0 h): 71%
COC(=O)Nc1ccc2c(c1)NC(=O)C/C=C/C[C@H](NC(=O)OC(C)(C)C)c1cc-2ccn1		ring closure, isolated yield ([1]; from C=CCC(=O)Nc1cc(NC(=O)OC)ccc1-c1ccnc([C@H](CC=C)NC(=O)OC(C)(C)C)c1, rcm bond, Grubbs II (0.4 eq)/pTsOH, DCM, 4.0 mM, 40.0 °C, 3.0 h): 26%
CCC1/C=C/C[C@H](NC(=O)OC(C)(C)C)c2cc(ccn2)-c2ccc(NC(=O)OC)cc2NC1=O (single isomer, unassigned; diastereomer a)		ring closure, isolated yield [1, 2]: 10%
CCOC(=O)C1C/C=C/C[C@H](NC(=O)OC(C)(C)C)c2cc(ccn2)-c2ccc(NC(=O)OC)cc2N1 (stereo partly shown)		ring closure, isolated yield ([1]; from C=CCC(Nc1cc(NC(=O)OC)ccc1-c1ccnc([C@H](CC=C)NC(=O)OC(C)(C)C)c1)C(=O)OCC, rcm bond, Grubbs (as described before)): 47%
C[C@@H]1/C=C/C[C@H](NC(=O)OC(C)(C)C)c2cn(COCC[Si](C)(C)C)c(n2)-c2ccc([N+](=O)[O-])cc2NC1=O		ring closure, isolated yield ([1]; from C=CC[C@H](NC(=O)OC(C)(C)C)c1cn(COCC[Si](C)(C)C)c(-c2ccc([N+](=O)[O-])cc2NC(=O)[C@H](C)C=C)n1, rcm bond, Grubbs II (0.287 mmol), DCM, 16.0 h): 56%
COC(=O)Nc1ccc(-c2ccnc([C@H](CCCO)NC(=O)OC(C)(C)C)c2)c(N)c1		ring closure, isolated yield ([1]; the molecule shown is the open-chain precursor, other bond, phosgene, then TEA/DMAP, DCM, 3.3 mM, 2 steps): 57%
Cc1c(C(=O)N[C@H]2CCC[C@H](C)C(=O)Nc3cc(-c4ccn[nH]4)ccc3-c3ccnc2c3)nnn1-c1cccc(Cl)c1F [Example 165, 1-(3-Chloro-2-fluorophenyl)-5-methyl-N-[(10S,14S)-10-methyl-9-oxo-5-(1H-pyrazol-5-yl)-8,16-diazatricyclo[13.3.1.0^2,7]nonadeca-1(19),2(7),3,5,15,17-hexaen-14-yl]-1H-1,2,3-triazole-4-carboxamide, TFA salt]	5080	
Cc1c(C(=O)N[C@H]2CCCCC(=O)Nc3cc(C(=O)N(C)C)ccc3-c3ccnc2c3)cnn1-c1cccc(Cl)c1F [Example 193, (14S)-14-C-1-(3-Chloro-2-fluorophenyl)-5-methyl-1H-pyrazole-4-5-N,5-N-dimethyl-9-oxo-8,16-diazatricyclo[13.3.1.0^2,7]nonadeca-1(19),2(7),3,5,15,17-hexaene-5,14-diamido, TFA salt]	2980	
COC(=O)Nc1ccc2c(c1)NC(=O)[C@H](C)CCC[C@H](NC(=O)c1cnn(-c3cccc(Cl)c3F)c1C)c1c[nH]c-2n1 [Example 262]	13.6	

The next lines start with results.

Ki (human Factor XIa) [nM]	SMILES	further results
5.49	Cc1c(C(=O)N[C@H]2CCC[C@@H](C)C(=O)Nc3cc(NC(=O)OCF)ccc3-c3ccnc2c3)nnn1-c1cccc(Cl)c1F [Example 139, Fluoromethyl N-[(10R,14S)-14-[1-(3-chloro-2-fluorophenyl)-5-methyl-1H-1,2,3-triazole-4-amido]-10-methyl-9-oxo-8,16-diazatricyclo[13.3.1.0^2,7]nonadeca-1(19),2(7),3,5,15,17-hexaen-5-yl]carbamate]	
52.6	COC(=O)Nc1ccc2c(c1)NC(=O)CCCC(C)[C@H](NC(=O)c1nnn(-c3cccc(Cl)c3F)c1C)c1cc-2ccn1 (stereo partly drawn) [Example 88, Methyl N-[(14S)-14-[1-(3-chloro-2-fluorophenyl)-5-methyl-1H-1,2,3-triazole-4-amido]-13-methyl-9-oxo-8,16-diazatricyclo[13.3.1.0^2,7]nonadeca-1(19),2(7),3,5,15,17-hexaen-5-yl]carbamate]	
9.08	COC(=O)Nc1ccc2c(c1)NC(=O)CCCC[C@H](NC(=O)c1cnn(-c3cccc(Cl)c3F)c1)c1cc-2ccn1 [Example 21, Methyl N-[(14S)-14-[1-(3-chloro-2-fluorophenyl)-1H-pyrazole-4-amido]-9-oxo-8,16-diazatricyclo[13.3.1.0^2,7]nonadeca-1(19),2(7),3,5,15,17-hexaen-5-yl]carbamate, TFA salt]	
10.4	COC(=O)Nc1ccc2c(c1)NC(=O)[C@H](C)CCC[C@H](NC(=O)c1cn(-c3c(F)ccc(Cl)c3F)cn1)c1cc-2ccn1 [Example 72]	
< 5	COC(=O)Nc1ccc2c(c1)NC(=O)[C@H](C)CCC[C@H](NC(=O)c1cn(-c3cccc(Cl)c3F)nn1)c1cc-2ccn1 [Example 3]	
